Test results: US20100035822A1, “PROLINE-RICH PEPTIDES, PHARMACEUTICAL COMPOSITION, USE OF ONE OR MORE PEPTIDES AND METHOD OF TREATMENT” (priority 2006, published 2010)
“Also recorded” adds a separate entry of the source.

Columns and labels:
[1] = test system: spontaneously hypertensive rats (SHR); assay: Anti-hypertensive action on SHR anaesthetized with pentobarbitone; assay type: in vivo, rat
Experimental: Adult male SHR, weighing between 250 and 350 g, were used. Material and methods described in Example 12 were employed, except for those described below.
1) Five SHR per group were anaesthetized intraperitoneally with 60 mg/Kg body weight with sodium pentobarbitone. Mean arterial blood pressure and heart rate were continuously calculated from arterial blood pressure pulses (PAP). Cardiovascular parameters were monitored during 30 minutes before i.v. administration of peptides SEQ ID NO 1, or SEQ ID NO 4, or SEQ ID NO 8 (71 nmoles/Kg body weight), or captopril (10 μmoles/Kg body weight), in a final volume of 0.5 mL 0.9% NaCl solution. The control was the vehicle (0.9% NaCl). PAM and heart rate were continuously monitored up to 180 minutes after administration of the anti-hypertensive compound.
2) The day before measurements, the SHR underwent surgery for catheter implantation into the femoral artery and vein. […] Cardiovascular parameters of the rats were monitored for 60 minutes before i.v. administration of peptides SEQ ID NO 1, or SEQ ID NO 4, or SEQ ID NO 8 (71 nmoles/Kg body weight), or captopril (10 μmoles/Kg body weight), in a final volume of 0.5 mL 0.9% NaCl solution. […] MAP and heart rate were continuously monitored up to 360 minutes after administration of the peptides.
Results, presented in FIG. 14B, are expressed as mean±SEM. […]

[2] = test system: SK-N-AS cells (human neuroblastoma); assay: Free intracellular Ca2+ concentration in SK-N-AS cells (fluo-3 AM, confocal microscopy); assay type: cell-based; details: 1 μM
Experimental: In these experiments the variation in free intracellular calcium [Ca^2+]i concentration was measured in SK-N-AS cells (human neuroblastoma, ATCC No. CRL-2137) after addition of 1 μmolar of peptides SEQ ID NO 1 or SEQ ID NO 8, or of 1 μmolar captopril. Cells were kept in DMEM (Dulbecco Modified Medium), supplemented with 10% fetal bovine serum (FBS) and 1% non-essential amino acids, at 5% CO2 atmosphere, at 37° C., and 95% relative humidity. Cells were treated with trypsin, and replicated at adequate cell concentrations.
Measurements of variation in the concentration of free [Ca^2+]i were performed with a confocal microscope LSM 510 (Zeiss, Jena, Germany), as described by Martins et al., (Martins et al., Neuronal differentiation of P19 embryonal carcinoma cells modulates kinin B2 receptor gene expression and function. J. Biol. Chem. 280: 19576-19586, 2005). Approximately 5×10^4 SK-N-AS cells were plated on 60 mm plates 24 hours prior to measurement, and then treated with 4 μM fluo-3 AM (Invitrogen Corporation) in 0.5% DMSO and 0.1% non-ionic surfactant pluronic acid F-127 for 30 minutes at 37° C. Cells were washed with DMEM containing 10% FBS, and transferred to defined medium (5 μg/ml insulin, 30 μg/ml transferrin, 20 μM ethanolamine, 30 nM sodium selenite, 1 μM sodium pyruvate, 1% non-essential amino acids, 1 mM glutamine, 100 μg/ml penicillin, 100 μg/ml streptomycin, 10 mM HEPES pH 7.4 in DMEM). The fluorescent fluo-3 AM was excited at 488 nm, and the fluorescence measured at 526 nm.
Variations in the [Ca^2+]i were measured in non-stimulated cells, and in cells stimulated with peptides SEQ ID NO 1 or SEQ ID NO 8, or with captopril (Sigma Aldrich). Increase of fluorescence was monitored for 2 minutes, and images were acquired in 256×256 pixels every second. At the end of each experiment, 5 μM ionophore (4-Br-A23187) were added, followed by 10 mM EGTA, or 20 μM digitonin to determine maximum and minimum fluorescence, Fmax and Fmin respectively, as described by Grynkiewicz et al., (1985).
Intracellular calcium concentrations [Ca^2+]i, related to fluorescence (F) values obtained after addition of peptides SEQ ID NO 1 or SEQ ID NO 8, were calculated with the equation: [Ca^2+]=Kd(F−Fmin)/(Fmax−F), assuming Kd=450 nM for fluo-3 AM (Hallett et al., 1990).

[3] = test system: renal nitric oxide synthase (NOS); assay: Activation of kidney NOS in mice (3H-arginine to 3H-citrulline conversion); assay type: in vivo, mouse
Experimental: Male Swiss albinos weighing 22-25 g were injected intraperitoneally with: (1) 50 μl 0.9% NaCl (basal level control), or with 0.9% NaCl supplemented with LPS (2 mg/Kg) (positive control); (2) SEQ ID NO 8 (0.21, 0.91, and 3.47 mg/Kg); (3) SEQ ID NO 8 (0.91 mg/Kg) injected into animals pre-treated via intraperitoneally with L-NAME (3 mg/Kg for 1 h); (4) SEQ ID NO 8 (0.91 mg/Kg) injected into animals pre-treated via intraperitoneally with HOE140 (10 μg/Kg for 1 h); (5) captopril (0.21, 0.91, and 3.47 mg/Kg). After 5, 15, 30, 60, 120, and 180 min, animals were killed, their kidneys removed and stored at −70° C. Animals of group 3 and 4 were killed 30 minutes after administration of the oligopeptide.
NOS activity was measured according to Bredt and Snyder [Bredt D S and Snyder S H. Isolation of nitric oxide synthetase, a calmodulin-requiring enzyme. Proc. Natl. Acad. Sci. USA, 87, 682-685, 1990], and is based on estimating the enzymatic activity of the conversion of L-arginine into L-citrulline using ^3H-arginine as a reference for the conversion.
The kidneys were minced in homogenizing buffer, pH 7.4 (20 mM HEPES, 0.32 M saccharose, 1 mM DTT, 0.1 mM EDTA, 1 mM PMSF), and sonicated. Protein dosage was performed according to Bradford (1976), followed by a chromatography step in a 300 μL Dowex 50WX8-400 column.
For the enzymatic assay, 80 μg total protein from each sample were incubated for 60 minutes at 37° C. in 200 μL buffer (30 mM HEPES, 1 mM EDTA, 1.25 mM CaCl2, 1 mM NADPH, 10 μg/mL calmodulin, 4 μM FAD, 4 μM FMN, 25 μM BH4, 120 nM arginine, 0.5 μCi ^3H-arginine). The reaction was stopped by the addition of 1 ml 20 mM HEPES, and incubation in ice bath. ^3H-citrulline was separated from ^3H-arginine by ion-exchange chromatography in a 300 μL Dowex 50WX8-400 column. Radioactivity of the eluates was measured in a beta-counter. After converting cpm (counts per minute) into dpm (disintegration per minute), the specific activity of the nitric oxide synthase (NOS) was calculated using the following equation: […]

| Molecule | effect of pentobarbitone on the anti-hypertensive action [1] | change of intracellular [Ca2+]i [2] | renal NOS activity after injection ([3]; 0.2-3.5 mg/Kg of body weight) | activation of mouse renal NOS activity ([3]; approximately 1 mg/Kg body weight) |
| --- | --- | --- | --- | --- |
| CC(CS)C(=O)N1CCC[C@@H]1C(=O)O (stereo partly drawn) [captopril, D-3-mercapto-2-methyl-1-oxopropyl-L-proline, reference compound] | not blocked by pentobarbitone | no change; also recorded: did not cause any change | No significant renal NOS activity | – |
| <ENWPHPQIPP [SEQ ID NO 8] | susceptible to the action of pentobarbitone | Increase | – | approximately 60% |
